# EP4351590B1, “A GLUCOSE-METHOTREXATE CONJUGATE FOR USE IN PREVENTING OR TREATING AUTOIMMUNE DISEASES” (Uniwersytet Medyczny Im. Piastów Slaskich We Wroclawiu, priority 2021, dated 2022)
# Like-named read-outs stand apart in the source and are kept apart here.
# Experiments:
# [1] = cited from earlier work
# [2] = tested on: unstimulated HaCaT cells; experiment: MTT assay, cell viability, non-inflammatory cell model; assay type: cell-based; settings: 10 µM, incubation 48 hours, unstimulated HaCaT (non-inflammatory human keratinocytes), mean of 3 replicates
# Experimental: SW982 and HaCaT cells were seeded in a 96-well plate at 10 x 10^3 cells per well. The next day, cells were incubated with TNF-a at a dose of 10 ng/ml to induce inflammation. After 24h, cells were treated with MTX or Glu-MTX at 10 µM dose and incubated for 48h. After 48 hours of incubation, the medium was decanted, and 100 µl of a solution of yellow soluble 3-(4,5-dimethyl-2-thiazolyl)-2,5-diphenyl-2H-tetrazolium bromide (MTT) at a concentration of 0.5-1 mg/ml was added. After 4 hours of incubation, the MTT solution was decanted, and 50 µl/well of DMSO was added. After 3 hours, the optical density of the dissolved formazan was analyzed colorimetrically in a BioTek plate reader.
# Since living cells reduce MTT to formazan, the optical density (OD) is highest in control (C) wells which accounted for 100% of cell viability. Viability in wells incubated with compound (COMP) was calculated using the formula: X = 100% x OD COMP/OD C [formula]
# Figures 1 and 2 show the results of a viability assessment study (IC50) for TNF-α-stimulated SW982 and HaCaT cell lines treated with methotrexate alone or a glucose-methotrexate (Glu-MTX) derivative. […] The test was also performed on an unstimulated HaCaT cell line, which is the counterpart of non-inflammatory human keratinocytes. […] The study used: 10 µM Glu-MTX, 10 µM Methotrexate; incubation 48 hours; MTT analysis. […]
# [3] = cited from earlier work; remark: listed apart in the source
SMILES,solubility in water [1],cytotoxicity (cell viability) [2],bioavailability ([3]; at higher doses),bioavailability ([3]; at low doses),plasma half-life ([3]; elimination from the circulation via the kidneys)
CN(Cc1nc2c(N)nc(N)nc2[nH]c1=O)c1ccc(C(=O)N[C@@H](CCC(=O)O)C(=O)O)cc1 [7-OH-MTX],sparingly soluble in water,,,,
"CN(Cc1cnc2nc(N)nc(N)c2n1)c1ccc(C(=O)N[C@@H](CCC(=O)O)C(=O)O)cc1 [MTX, Methotrexate]",,much greater cytotoxicity,10-20%,almost complete,5 to 8 h
